ChEMBL document CHEMBL3988442, “University of Dundee, Small-Polar-MMV Screening Library” (2021)
Values joined by “and” are separate entries in the source; they are usually repeats but may differ in a detail not shown here. Identical values can stand only once.

How the values were obtained:
[1] = tested on: Plasmodium falciparum; test: Plasmodium falciparum sporozoite viability assay; assay type: functional, organism-based; conditions: for IC50: Plasmodium falciparum
[2] = target: Polyketide synthase Pks13 (Mycobacterium tuberculosis (strain ATCC 25618 / H37Rv), UniProt I6X8D2); test: Mycobacterium tuberculosis Polyketide synthase 13 Thioesterase (PKS13); assay type: functional
Chain of Polyketide synthase Pks13 (I6X8D2 whole entry): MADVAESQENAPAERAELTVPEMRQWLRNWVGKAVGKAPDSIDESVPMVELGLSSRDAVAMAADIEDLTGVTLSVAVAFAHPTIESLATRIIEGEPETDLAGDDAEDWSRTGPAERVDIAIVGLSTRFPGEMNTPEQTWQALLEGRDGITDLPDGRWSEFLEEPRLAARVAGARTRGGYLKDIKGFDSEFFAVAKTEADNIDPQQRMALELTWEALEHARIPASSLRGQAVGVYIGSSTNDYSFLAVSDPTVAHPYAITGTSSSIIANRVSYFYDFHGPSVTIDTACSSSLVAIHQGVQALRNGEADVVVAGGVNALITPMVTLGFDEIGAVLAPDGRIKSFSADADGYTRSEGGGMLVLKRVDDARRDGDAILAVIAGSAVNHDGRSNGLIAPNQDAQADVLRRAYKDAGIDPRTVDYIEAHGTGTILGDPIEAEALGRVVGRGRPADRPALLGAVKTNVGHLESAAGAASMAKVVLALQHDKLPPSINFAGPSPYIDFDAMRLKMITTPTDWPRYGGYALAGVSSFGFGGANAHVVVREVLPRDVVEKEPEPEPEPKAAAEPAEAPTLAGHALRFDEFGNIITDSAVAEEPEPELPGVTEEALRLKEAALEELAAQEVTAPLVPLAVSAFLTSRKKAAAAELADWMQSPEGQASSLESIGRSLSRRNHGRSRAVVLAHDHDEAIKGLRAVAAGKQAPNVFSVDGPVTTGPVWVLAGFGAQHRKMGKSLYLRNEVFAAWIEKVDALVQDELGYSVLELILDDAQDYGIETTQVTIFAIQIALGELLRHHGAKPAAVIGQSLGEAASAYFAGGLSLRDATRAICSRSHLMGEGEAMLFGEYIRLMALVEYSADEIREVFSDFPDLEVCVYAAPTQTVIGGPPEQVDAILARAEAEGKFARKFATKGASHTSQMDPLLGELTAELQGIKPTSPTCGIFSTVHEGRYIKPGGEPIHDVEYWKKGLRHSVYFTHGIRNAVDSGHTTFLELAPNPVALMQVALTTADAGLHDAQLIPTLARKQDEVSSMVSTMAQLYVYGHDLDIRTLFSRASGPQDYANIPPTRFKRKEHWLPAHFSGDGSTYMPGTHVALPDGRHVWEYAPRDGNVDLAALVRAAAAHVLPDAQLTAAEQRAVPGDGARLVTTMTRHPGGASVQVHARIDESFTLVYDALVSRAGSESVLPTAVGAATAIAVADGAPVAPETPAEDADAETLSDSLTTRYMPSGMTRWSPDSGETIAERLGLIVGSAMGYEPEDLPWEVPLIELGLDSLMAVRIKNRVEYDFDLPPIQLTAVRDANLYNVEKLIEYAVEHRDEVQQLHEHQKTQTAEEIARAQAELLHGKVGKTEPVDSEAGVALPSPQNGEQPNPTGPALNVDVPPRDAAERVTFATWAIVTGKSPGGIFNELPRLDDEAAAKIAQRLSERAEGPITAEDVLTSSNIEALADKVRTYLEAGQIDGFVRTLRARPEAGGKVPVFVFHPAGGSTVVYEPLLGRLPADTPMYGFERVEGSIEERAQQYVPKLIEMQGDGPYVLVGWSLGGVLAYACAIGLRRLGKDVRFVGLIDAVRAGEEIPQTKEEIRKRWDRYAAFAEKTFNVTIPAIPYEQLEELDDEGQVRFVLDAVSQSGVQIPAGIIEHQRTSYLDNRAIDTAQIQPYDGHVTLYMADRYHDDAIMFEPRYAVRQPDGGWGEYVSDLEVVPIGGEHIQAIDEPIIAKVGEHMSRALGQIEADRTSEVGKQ

[3] = target: Sialic acid-binding Ig-like lectin 9 (Homo sapiens, UniProt Q9Y336); test: Hs-Siglec9 ALPHAscreen SOP 20170721
Chain of Sialic acid-binding Ig-like lectin 9 (Q9Y336 whole entry): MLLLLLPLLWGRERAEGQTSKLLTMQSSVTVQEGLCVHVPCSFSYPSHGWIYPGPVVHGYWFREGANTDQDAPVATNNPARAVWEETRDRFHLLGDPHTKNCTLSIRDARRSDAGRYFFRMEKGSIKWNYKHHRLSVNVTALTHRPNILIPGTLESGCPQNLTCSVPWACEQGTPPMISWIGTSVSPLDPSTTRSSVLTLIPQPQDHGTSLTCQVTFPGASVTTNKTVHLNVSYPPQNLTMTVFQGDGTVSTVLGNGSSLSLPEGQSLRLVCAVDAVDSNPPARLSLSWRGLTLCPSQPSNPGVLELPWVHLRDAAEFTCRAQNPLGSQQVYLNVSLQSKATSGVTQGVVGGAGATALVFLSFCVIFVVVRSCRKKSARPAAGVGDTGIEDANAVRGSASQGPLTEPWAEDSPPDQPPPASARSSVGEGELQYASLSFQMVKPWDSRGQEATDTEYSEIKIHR

[4] = target: T1, Coenzyme A biosynthesis bifunctional protein CoaBC (Mycobacterium tuberculosis (strain ATCC 25618 / H37Rv), UniProt P9WNZ1); test: Biomol Green assay for MtCoaBC inhibitor, OD650 read; assay type: functional
T1 sequence (P9WNZ1 whole entry): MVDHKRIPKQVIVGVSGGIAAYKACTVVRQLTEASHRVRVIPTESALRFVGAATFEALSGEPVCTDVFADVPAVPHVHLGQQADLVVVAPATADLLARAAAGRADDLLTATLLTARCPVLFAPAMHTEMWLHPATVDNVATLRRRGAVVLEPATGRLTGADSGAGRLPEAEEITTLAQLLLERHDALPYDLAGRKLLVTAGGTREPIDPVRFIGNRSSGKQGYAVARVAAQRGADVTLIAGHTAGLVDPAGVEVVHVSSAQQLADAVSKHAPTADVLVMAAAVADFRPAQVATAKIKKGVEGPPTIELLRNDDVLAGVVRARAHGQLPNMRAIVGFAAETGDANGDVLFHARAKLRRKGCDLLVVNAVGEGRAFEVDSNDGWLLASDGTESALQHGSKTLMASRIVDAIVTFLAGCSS

[5] = In vitro enzyme assay to detect hydrolysis of chlorophenol red-beta-D-[…] directly proportional to the number of Toxoplasma stably expressing beta-galactosidase; assay type: functional, organism-based, Toxoplasma gondii; conditions: Toxoplasma gondii
[6] = target: Lysine--tRNA ligase (Plasmodium falciparum (isolate 3D7), UniProt Q8IDJ8); test: Pf-KRS-1 (Lysyl-RNA Synthetase-1, KRS-1, cytosolic KRS) from Plasmodium falciparum. Inhibitor assay, 384 well plate, luminescence read.; assay type: functional
Chain of Lysine--tRNA ligase (Q8IDJ8 whole entry): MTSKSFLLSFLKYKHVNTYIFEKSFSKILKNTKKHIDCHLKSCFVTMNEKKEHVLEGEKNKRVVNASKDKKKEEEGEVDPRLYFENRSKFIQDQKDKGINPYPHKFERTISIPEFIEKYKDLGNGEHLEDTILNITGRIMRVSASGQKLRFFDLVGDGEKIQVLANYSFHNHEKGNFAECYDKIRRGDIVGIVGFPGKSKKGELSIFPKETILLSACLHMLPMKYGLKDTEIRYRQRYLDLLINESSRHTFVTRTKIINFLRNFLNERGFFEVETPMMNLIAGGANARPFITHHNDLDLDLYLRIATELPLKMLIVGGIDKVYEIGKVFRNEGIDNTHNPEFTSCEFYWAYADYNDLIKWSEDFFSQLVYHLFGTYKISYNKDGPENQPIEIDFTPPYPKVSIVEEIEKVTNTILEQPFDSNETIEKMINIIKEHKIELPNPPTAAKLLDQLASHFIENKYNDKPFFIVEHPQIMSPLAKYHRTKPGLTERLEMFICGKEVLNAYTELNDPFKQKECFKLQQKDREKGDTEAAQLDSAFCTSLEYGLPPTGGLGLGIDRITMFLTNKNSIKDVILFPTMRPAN

Row | Structure (SMILES) | pIC50 [1] | IC50 [1] [nM] | also measured
1 | CC(C)(C)n1ncc2c(=O)n(CC(=O)NCc3ccccc3Cl)cnc21 | 7.103 | 103 | –
2 | CC(C)(C)n1ncc2c(=O)n(CC(=O)NCc3ccccc3)cnc21 | 7.194 | 43 | –
3 | COC(=O)CCCNC(=O)N1CCc2c([nH]c3ccc(Cl)cc23)C1 | 5.609 and 6.035 | – | –
4 | Cc1cc(C(=O)NCc2cc(C)oc2C)no1 | – | – | IC50 [2]: > 100000 nM; IC50 [3]: > 30200 nM
5 | O=C(NCCNc1cc(N2CCCC2)cnn1)Nc1ccccc1F | 6.092 | 819 | –
6 | COCC1CN(Cc2ccsc2)Cc2cnn(C)c21 (stereo not drawn) | – | – | IC50 [4]: > 30200 nM; IC50 [3]: > 30200 nM
7 | NC(=O)c1ccc(NC(=O)Cn2cc(I)cn2)cc1 | 5.308 | 3070 | –
8 | CC/N=c1\nc(NCC)nc2n1C(O)(Nc1ccc(C)cc1C)CS2 (stereo not drawn) | 5.511 | 2830 | –
9 | O=C(Nc1ccc(Cl)cn1)c1nn(C2CCS(=O)(=O)C2)c2c1CCCC2 (stereo not drawn) | 5.512 and 5.897 | – | –
10 | O=C(Nc1cccc(Cl)c1)c1nn(C2CCS(=O)(=O)C2)c2c1CCCC2 (stereo not drawn) | 5.123 | 8150 | –
11 | COc1c(C(=O)NCC(C)C)nnn1Cc1ccccc1 | – | – | IC50 [3]: > 30200 nM; IC50 [5]: > 50100 nM
12 | Cc1cc(C(=O)N2CCCC(c3cc(=O)nc4n3CCC4)C2)on1 (stereo not drawn) | – | – | IC50 [4]: > 30200 nM; IC50 [3]: > 30200 nM
13 | Cc1csc(NC(=O)c2cnc(C3CCCN(C)C3)cn2)n1 (stereo not drawn) | 5.674 and 6.096 | – | –
14 | Cc1ccc(Nc2nccc(C3CCN(CC(N)=O)C3)n2)nc1 (stereo not drawn) | 7.48 | 21 | –
15 | O[C@H]1CN(CCOc2ccc(F)cc2)CC[C@@]12CCCO2 | 5.66 | 2550 | –
16 | CCn1cc(C(=O)N2CCOC(c3nc(-c4cccs4)no3)C2)cn1 (stereo not drawn) | 5.925 and 5.539 | – | –
17 | Cc1ccc(Nc2nccc(C3CCCN(CC(=O)N(C)C)C3)n2)nc1 (stereo not drawn) | 5.724 | 2680 | –
18 | CC(NC(=O)c1cc(C(C)C)[nH]n1)C(=O)Nc1ccccc1 (stereo not drawn) | 7.217 | 48.9 | –
19 | Cc1ccnc(NC(=O)c2ccc(Cl)o2)c1 | 7.621 and 7.995 | – | –
20 | CN(C)CC(C)(O)CNC(=O)Nc1sc2ccccc2c1Cl (stereo not drawn) | 5.506 | 2690 | –
21 | Cc1nc(COc2ccc(OC3CCCCNC3=O)cc2)oc1C (stereo not drawn) | 7.451 | 39 | –
22 | NC(=O)C1CN(c2ccc3cc(Br)ccc3n2)CCO1 (stereo not drawn) | 7.699 and 7.366 | – | –
23 | O=C(CCn1cccn1)NS(=O)(=O)N1CCCc2ccccc21 | 6.348 | 495 | –

Row | Structure (SMILES) | pIC50 [1] | IC50 [1] [nM] | also measured
24 | Cn1cc(CCC(=O)NS(=O)(=O)N2CCCc3ccccc32)cn1 | 6.583 | 157 | –
25 | Cc1ncsc1CN(C)Cc1cc2c(cc1OC(F)F)OCO2 | 5.624 | 3970 | –
26 | COCCNC(=O)Nc1cc2c(cc1SC)OCCO2 | 6.283 | 555 | –
27 | CSc1cc2c(cc1NC(=O)NCCn1ccnc1)OCCO2 | 6.776 | 126 | –
28 | CSc1cc2c(cc1NC(=O)NCC1CCOC1)OCCO2 (stereo not drawn) | 6.419 | 218 | –
29 | CC(C)(C)n1ncc2c1CCCC2NCc1ccc2c(c1)OCCO2 (stereo not drawn) | 6.564 | 411 | –
30 | CC(C)C(=O)N1CCN(Cc2csc(-c3ccccn3)n2)CC1 | 5.915 | 965 | –
31 | OCC1CCCN1c1cc(NCCc2ccccn2)ncn1 (stereo not drawn) | 7.276 | 51.7 | –
32 | OCC1CCCN1c1cc(NCCc2ccsc2)ncn1 (stereo not drawn) | 7.515 | 59.6 | –
33 | c1cc(-c2noc(CN3CCc4c(ncn4C4CC4)C3)n2)cs1 | 5.546 | 2470 | –
34 | CC(=O)N1Cc2ccccc2CC1C(=O)Nc1cc(C)ccn1 (stereo not drawn) | 7.317 | 41.2 | –
35 | COCCN(C)c1ccc(NCc2cscn2)nc1 | 6.387 | 391 | –
36 | OC1CCN(c2ccc(CNc3nc4ccccc4s3)cc2F)CC1 | 7.297 and 6.882 | – | –
37 | CCC(=O)NC1CCCN(C(=O)Nc2cc(-c3ccccc3)on2)C1 (stereo not drawn) | 6.751 | 187 | –
38 | Cc1nnc(CN(C)Cc2nc3c(s2)CCCC3)o1 | 5.52 | 3560 | –
39 | CN1CCN(C2CCN(c3cnc4ccccc4n3)CC2)C1=O | 7.03 and 7.343 | – | –
40 | CCC(CC)c1nnc(NC(=O)N2CCCC(NC(C)=O)C2)s1 (stereo not drawn) | 5.262 and 5.718 | – | –
41 | CN1CCOC(C(=O)Nc2ccc3c(c2)nc(C(C)(C)C)n3C)C1 (stereo not drawn) | 7.552 | 16.9 | –
42 | Cc1ccnc(NC(=O)CSCc2cccnc2)c1 | 7.141 and 6.819 | – | –
43 | O=C(Nc1ccc(N2CCCC2)nc1)N1CCc2ccccc2C1 | 5.522 | 2030 | –
44 | Cc1cncc(NC(=O)c2ccc(CN3CC[C@H](O)C3)cc2)c1 | 6.801 | 80.2 | –
45 | COc1ccc2cc(C3CN(C(=O)CN4CCCC4)CCO3)ccc2c1 (stereo not drawn) | 5.408 | 7630 | –
46 | CCC1CN(C(=O)c2ccc(O)cn2)CCC(=O)N1Cc1ccccc1 (stereo not drawn) | 5.529 and 5.955 | – | –

Row | Structure (SMILES) | pIC50 [1] | IC50 [1] [nM] | also measured
47 | CN(C)CCNc1ccc(-c2nc(-c3ccccc3F)no2)cn1 | 7.212 and 6.908 | – | –
48 | CC(C)(C)c1ncc(C(=O)NCCSc2ccccn2)c(O)n1 | 7.35 | 63.2 | –
49 | C(=C\c1ccc(CN2CCCC2)cn1)/c1ccccc1 | 7.171 | 113 | –
50 | COc1ccc2cc(C3CN(C(=O)CCNC(C)=O)CCO3)ccc2c1 (stereo not drawn) | 7.142 | 48.6 | –
51 | COCc1noc(-c2ccc(N3CCC[C@H]3CO)nc2)n1 | 7.269 | 60.2 | –
52 | COC(=O)CC1CCN(C(=O)Nc2ccc(-c3ccn[nH]3)cc2)C1 (stereo not drawn) | 6.226 | 436 | –
53 | CNC(=O)CCC(=O)N1CCOC(c2ccc3cc(OC)ccc3c2)C1 (stereo not drawn) | 7.215 | 83 | –
54 | c1cncc(OCc2nc(C3CC3)nn2-c2ccc3c(c2)OCCO3)c1 | 5.428 | 3840 | –
55 | Cc1cc(NC(=O)c2ccc(CN3CC[C@H](O)C3)cc2)ccc1F | 7.801 | 15.2 | –
56 | Clc1ccc2nc(N3CCC(NCCCC4CCOC4)CC3)sc2c1 (stereo not drawn) | 5.724 | 3770 | –
57 | CCCc1cc(CNC2CCN(c3nc4ccccc4s3)CC2)on1 | 5.685 | 1840 | –
58 | CSc1ccccc1C(=O)Nc1ccc(OC2CCN(C)CC2)cc1 | 6.337 and 5.999 | – | –
59 | CNc1cc(C)nc(N2C[C@@H](C(=O)O)[C@H](C3CC3)C2)n1 | 5.907 | 989 | –
60 | Cn1c(-c2cc3n(n2)CCCN(CC(=O)O)C3)nc2ccccc21 | 5.921 and 6.257 | – | –
61 | CN1CCCC1CCn1ccnc1-c1nc(-c2ccccc2)no1 (stereo not drawn) | 6.882 | 71.6 | –
62 | CO[C@H]1C[C@@H](O)C12CCN(C(=O)CCCOc1ccccc1)CC2 | 6.089 and 6.557 | – | –
63 | COc1cc(NC(=O)c2ccc(CN3CC[C@H](O)C3)cc2)cc(OC)c1 | 6.645 | 175 | –
64 | COc1ccc2cc(C3CN(C(=O)N(C)C)CCO3)ccc2c1 (stereo not drawn) | 7.993 | 14.9 | –
65 | CSc1ccc(-c2nc(CN3CCC(NC(C)=O)C3)c(C)o2)cc1 (stereo not drawn) | 6.077 | 533 | –
66 | Cc1cccc(C(=O)Nc2ccc(OC3CCN(C)CC3)cc2)c1 | 7.031 | 119 | –
67 | COc1cccc(-c2noc(C3CCN(Cc4cn(C)nc4C)C3)n2)c1 (stereo not drawn) | 5.995 | 863 | –
68 | c1cnc(N2CCC3(CCN(CC4CCOC4)CC3)CC2)nc1 (stereo not drawn) | – | – | IC50 [3]: > 30200 nM; IC50 [6]: > 50100 nM
69 | Cc1cccc(Nc2cc(C3CCCN(CC(N)=O)C3)ccn2)n1.O=CO.O=CO (stereo not drawn) | 6.742 | 186 | –
